Test results: patent publication US8017727B2, “Conjugates of membrane translocating agents and pharmaceutically active agents” (Merrion Research III Limited, priority 1999, dated 2011)
Converted amounts (≈) assume the structure as drawn.

Legend:
Caco-2 cells = test: Delivery of DNA from MTLP coated liposomes into Caco-2 cells (β-galactosidase expression); assay type: cell-based, human; settings: versus lipofectamine+DNA and lipofectamine+DNA+protamine control liposomes
Method: DNA delivery into Caco-2 cells from liposomes and from MTLP coated liposomes was calculated as β-galactosidase expression per mg of total protein in the cell supernatant. β-galactosidase expression was determined using the Boehringer Mannheim chemiluminescence kit. Protein was determined using the Pierce Micro bichinconate (BCA) protein assay.
Caco-2 cells were plated at 1×10^5 cells/well in 1 ml of culture media and incubated at 37° C. in 5% CO2 overnight. The cells were washed twice in 0.5 ml of optiMEM. ZElan094, 204N or 204 (SEQ ID NOS: 2, 23, 24) (Solution 4, Example 9) were each added to triplicate wells (250 μl/well) of the washed cells and incubated for 4 h at 37° C. After 4 h, 250 μl of optiMEM containing 2× fetal calf serum was added and the cells were incubated for an additional 20 h at 37° C. At 24 h post-transfection, the cells were lysed with Boehringer Mannheim Lysis Buffer. The lysate was centrifuged for 2 min at 14,000 rpm in an Eppendorf Centrifiguge and the supernatant was collected.

Caco-2 monolayers [1] = test: Transport of dipeptide 14C-gly-sar across Caco-2 monolayers; assay type: cell-based, human; set-up: key to % inhibition 14C-gly-sar transport: NS: no significant difference between experimental (+MTLP) and control cells (−MTLP) in the transport of radiolabeled drug; settings: flux measured over 2 h
Method: (§1) The effect of the MTLPs ZElan094, ZElan178 and ZElan187 (SEQ ID NOS: 2, 7 and 16) and of the targeting peptide ZElan022 (U.S. patent application Ser. Nos. 09/079,819, 09/079,723 AND 09/079,678, AND PCT APPLICATION PCT/US98/10088, PUBLISHED AS WO 98/51325) on the transport of the dipeptide ^14C-gly-sar and of the reporter molecule ^3H-fMLP across Caco-2 monolayers was determined. The Caco-2 monolayers were grown on Transwell-Snapwells. Cell viability was determined by measuring TEER of the Caco-2 monolayers during each experiment. No significant drop in TEER was measured. Cell permeability was determined by measuring mannitol flux across the Caco-2 monolayers during each experiment. No increase in mannitol flux was measured in the presence of the MTLP ZElan094.
(§2) The flux of the dipeptide ^14C-gly-sar and of the reporter molecule ^3H-fMLP across the Caco-2 monolayers in the absence and in the presence of the MTLPs ZElan094, ZElan178 and ZElan187 (SEQ ID NOS: 2, 7 and 16) and of the targeting peptide ZElan022 (U.S. patent application Ser. Nos. 09/079,819, 09/079,723 AND 09/079,678), AND PCT APPLICATION PCT/US98/10088, PUBLISHED AS WO 98/51325 was measured over 2 h, and reduction in the permeability coefficient was determined in the presence of cold substrates.

Caco-2 monolayers [2] = test: Transport of reporter molecule 3H-fMLP across Caco-2 monolayers; assay type: cell-based, human; settings: for % inhibition 3H-fMLP transport: flux measured over 2 h
Method: as §1, with “A[…]/US98/10088,” for “APPLICATION PCT/US98/10088,”
as §2, with “A[…]/US98/10088,” for “APPLICATION PCT/US98/10088,”
Caco-2 monolayers were grown and tested for viability as in Example 11. Transport of ^3H-fMLP across Caco-2 monolyers was measured in the presence from 0 to 200 μg/ml of the MTLP ZElan094.

[3] = Solubility of ZElan094 (physical characteristics); assay type: physicochemical; settings: water
Caco-2 cell monolayers = test: Permeability of tritiated kappa peptide conjugates through differentiated Caco-2 cell monolayers; assay type: in vitro ADME, human; settings: n=5
Method: Highest transport values were obtained in the first 30 min followed by a 2-4 fold decrease at 60 min. The significance of these findings is unclear. The data may be indicative of dual binding/uptake events occurring through i) a kappa receptor specific mechanism and ii) direct membrane interaction through lipid interaction of the membrane permeable peptide.

[4] = 3H tissue distribution of kappa peptide conjugates, conscious rat model; assay type: in vivo, Wistar rats; settings: ID, 100 μCi, potency corrected
Method: The tissue was weighed and a representative sample, (ca 0.1 g), was removed to a scintillation vial. The tissue was solubilzed with 1 ml of BTS-450 (an organic tissue solubliser). Ten ml of scintillation fluid was added and the radioactivity was measured. The radioactivity was expressed as dpm/initial weight of tissue.

[5] = Systemic 3H bioavailability of kappa peptide conjugates, conscious rat model (plasma); assay type: in vivo, Wistar rats; settings: intraduodenal (ID), 100 μCi
Method: The possible enhancing effects of ELAN094 and ELAN207 MTLPs (SEQ ID NOs 2 and 60) on intestinal absorption of the kappa peptide were examined in a conscious rat model.
The study was non-randomised, parallel group design. Wistar rats within the 250-350 g weight range were used. All animals were fasted for a period of 16 h prior to study initiation. Water was available at all times.
Intravenous injection of 10 μCi of ^3H-kappa peptide-Kaffiralin-1 (plain kappa peptide) (tail vein injection).
Intraduodenal instillation of 100 μCi of ^3H-kappa peptide-Elan094 (Analysed). The Elan094 ligand contains a membrane translocating sequence.
Intraduodenal instillation of 100 μCi of ^3H-kappa peptide-Elan207 (Analysed). The Elan207 ligand contains a membrane translocating sequence.
Intraduodenal instillation of 100 μCi of ^3H-kappa peptide-Kaffiralin-1.
The plasma (100-250 μl) was made up to 1 ml with BTS-450 (an organic tissue solubiliser) and incubated for 1 hour. Ten ml of Scintillation fluid was added and the radioactivity was measured.
The study was a non-randomised, parallel group biostudy designed to evaluate the systemic bioavailability of tritium labelled kappa peptide conjugates after intra-duodenal instillation in the conscious rat model. Each rat only received one treatment and the plasma samples were analysed for tritium content. The calculation of AUClast, Amax, tmax, Volume of Distribution (V d) and Clearance was based on base line corrected data. The absolute bioavailability was calculated using potency corrected data.

With “H-K(ε-dansyl)AAVLLPVLLAAKKKRKA-NH2 ({K(dansyl)}-AAVLLPVLLAAKKKRKA-NH2) [ZElan204N]” the “DNA delivery into and expression within Caco-2 cells” value (Caco-2 cells) was “most effective”.

For `CC(C)C[C@H](NC(=O)[C@H](CC(C)C)NC(=O)[C@@H](NC(=O)[C@@H]1CCCN1C(=O)[C@H](CC(C)C)NC(=O)[C@H](CC(C)C)NC(=O)[C@@H](NC(=O)[C@H](C)NC(=O)[C@H](C)NC(=O)[C@H](C)NC(=O)[C@H](CCCCN)NC(=O)[C@H](CCCCN)NC(=O)[C@@H](N)CCCCNS(=O)(=O)c1cccc2c(N(C)C)cccc12)C(C)C)C(C)C)C(=O)N[C@@H](C)C(=O)N[C@@H](C)C(=O)N1CCC[C@H]1C(N)=O` [ZElan094], the “% inhibition 14C-gly-sar transport” value (Caco-2 monolayers [1]) was “NS”, the “inhibition of 14C-gly-sar transport” value (Caco-2 monolayers [1]) was “did not inhibit transport” and the “% inhibition 3H-fMLP transport” value (Caco-2 monolayers [2]; listed as 094) was 77.2%. For the same compound, the “% inhibition 3H-fMLP transport” value (Caco-2 monolayers [2]; listed as ZElan 094) was “inhibited transport”, the “inhibition of 3H-fMLP transport” value (Caco-2 monolayers [2]; range 0 to 200 μg/ml) was “inhibited” and the solubility [3] was 1000 µg/mL (≈ 545 µM).

For `CC[C@@H](C)[C@@H](NC(=O)[C@@H](Cc1ccccc1)NC(=O)[C@@H](Cc1ccccc1)NC(=O)[C@H](CCCCN)NC(=O)[C@@H]1CCCN1C(=O)[C@H](C)NC(=O)[C@H](C)NC(=O)[C@H](CC(C)C)NC(=O)[C@H](CC(C)C)NC(=O)[C@@H](NC(=O)[C@@H]1CCCN1C(=O)[C@H](CC(C)C)NC(=O)[C@H](CC(C)C)NC(=O)[C@@H](NC(=O)[C@H](C)NC(=O)[C@H](C)NC(=O)[C@H](C)NC(=O)[C@H](CCCCN)NC(=O)[C@@H](N)CCCCN)C(C)C)C(C)C)C(=O)N[C@H](CCCNC(=N)N)C(N)=O` [3H-Kappa peptide-Elan094], the “permeability compared to the kappa peptide control” value (Caco-2 cell monolayers) was “No significant increase”, the “Catheter, % of administered dose” value [4] was 0.20 ± 0.10% and the “GI Tissue, % of administered dose” value [4] was 11.61 ± 11.27%. For the same compound, the “GI Washing, % of administered dose” value [4] was 9.70 ± 5.24%, the “GI contents, % of administered dose” value [4] was 23.57 ± 21.57% and the “Liver, % of administered dose” value [4] was 0.37 ± 0.06%. For the same compound, the “Total GI (% recovery from GI tissue, GI contents & GI wash)” value [4] was 44.89 ± 19.94%, the “Kidney, % of administered dose” value ([4]; t=6 h) was 0.12 ± 0.07% and the “Plasma, % of administered dose” value ([4]; t=6 h) was 0.42±0.08%. For the same compound, the “Total Recovery, % of administered dose” value ([4]; t=6 h) was 46.00 ± 19.91%, the “fold increase in absolute 3H bioavailability versus kappa peptide without ligand” value [5] was about 6 fold and the “3H AUClast” value ([5]; Elan207 = original group) was 260642.53±35010.58 dpm/ml·h. For the same compound, the “3H Amax (maximum radioactivity)” value ([5]; Elan207 = original group) was 158512.67±18907.79 dpm/ml, the “fold increase in absolute 3H bioavailability versus kappa peptide without ligand” value ([5]; listed as Elan094 MTLP) was “approximately 5.8 fold” and the bioavailability ([5]; rat, plasma, potency corrected, Elan207 = original group, read-out: Absolute 3H bioavailability) was 46.5 ± 6.24%.
